We go through three compounds from patent publication US6355630B1, “Estra-1,3,5(10)-triene-7α-thioethers” (priority 1997, dated 2002).

Where two headings read alike, the source gives them in different places.

The target of one experiment is T1, human estrogen receptor (Homo sapiens, UniProt P03372).
T1 construct: expressed in transfected cells; host or cells: Chinese Hamster ovary (CHO) cells; ribosome-free cytosol
T1 sequence (P03372 1-595): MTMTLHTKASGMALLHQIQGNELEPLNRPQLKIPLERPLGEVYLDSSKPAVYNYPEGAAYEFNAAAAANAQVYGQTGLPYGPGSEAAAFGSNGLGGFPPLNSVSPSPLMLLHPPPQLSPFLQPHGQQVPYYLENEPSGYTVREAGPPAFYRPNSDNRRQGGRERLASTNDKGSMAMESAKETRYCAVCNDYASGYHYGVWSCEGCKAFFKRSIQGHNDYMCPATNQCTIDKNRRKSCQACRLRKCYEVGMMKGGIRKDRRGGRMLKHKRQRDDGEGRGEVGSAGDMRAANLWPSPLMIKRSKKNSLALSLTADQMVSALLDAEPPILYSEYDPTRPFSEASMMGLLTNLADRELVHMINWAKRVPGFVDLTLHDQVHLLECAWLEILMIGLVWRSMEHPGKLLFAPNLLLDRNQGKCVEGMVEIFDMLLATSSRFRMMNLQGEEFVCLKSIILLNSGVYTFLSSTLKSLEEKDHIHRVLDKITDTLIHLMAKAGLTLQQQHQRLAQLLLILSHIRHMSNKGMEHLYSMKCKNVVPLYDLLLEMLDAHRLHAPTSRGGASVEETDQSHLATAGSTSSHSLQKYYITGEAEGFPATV
Nature of the experiment: In vitro estrogen receptor binding test procedure ([3H]-17β-estradiol competition). The method, then: In vitro Estrogen Receptor Binding Test Procedure
Chinese Hamster ovary (CHO) cells overexpressing the estrogen receptor were grown in […] dishes in DMEM+10% dextran coated charcoal, stripped fetal bovine serum. The plates were washed twice with PBS and once with 10 mM Tris-HCl, pH 7.4, 1 mM EDTA. Cells were harvested by scraping the surface and then the cell suspension was placed on ice. Cells were disrupted with a hand-held motorized tissue grinder using two, 10-second bursts. The crude preparation was centrifuged at 12,000 g for 20 minutes followed by a 60 minute spin at 100,000 G to produce a ribosome free cytosol. The cytosol was then frozen and stored at −80° C. Protein concentration of the cytosol was estimated using the BCA assay with reference standard protein.
Binding Test Procedure Conditions
100 uG/100 uL of the receptor preparation was aliquoted per well. […] The plate was incubated at room temperature for 2.5 h. At the end of this incubation period 150 uL of ice-cold dextran coated charcoal (5% activated charcoal coated with 0.05% 69K dextran) was added to each well and the plate was immediately centrifuged at 99 g for 5 minutes at 4° C. 200 uL of the supernatant solution was then removed for scintillation counting. Samples were counted to 2% or 10 minutes, whichever occurs first. […] Also, wells containing radioactivity but no cytosol were processed with charcoal to estimate unremovable DPM of [^3H] […] 96-well plates were used because they have proven to bind the least amount of estradiol.
Counts per minute (CPM) of radioactivity were automatically converted to disintegrated per minute (DPM) by the Beckman LS 7500 Scintillation Counter using a set of quenched standards to generate a H# for each sample. To calculate the % of estradiol binding in the presence of 100 or 500 fold competitor the following formula was applied:
((DPM sample−DPM not removed by charcoal/(DPM estradiol−DPM not removed by charcoal))×100%=% of estradiol binding
For the generation of IC50 curves, % binding is plotted vs compound. […] Values are reported as IC50 values. […] For a description of these methods, see Hulme, E. C., ed. 1992. Receptor-Ligand Interactions: A Practical Approach. IRL Press, New York.(see especially chapter 8).
Compounds were tested for their ability to displace estradiol in a human ER-receptor preparation as described above.

The next experiment relates to rat uterus. The experiment can be described thus: Rat uterotrophic/antiuterotrophic test procedure. Type of experiment: in vivo. Conditions: for Uterine wet weight: daily ip, 4-day immature rat. The method, then:
Rat Uterotrophic/Antiuterotrophic Test Procedure
The estrogenic and antiestrogenic properties of the compounds were determined in a 4-day immature rat uterotrophic assay (as described previously by L. J. Black and R. L. Goode, Life Sciences, 26, 1453 (1980)). Immature Sprague-Dawley rats (female, 18 days old) were tested in groups of six. […] On day 4 the animals were sacrificed by CO2 asphyxiation and their uteri were removed and stripped of excess lipid, any fluid removed and the wet weight determined. A small section of one horn was submitted for histology and the remainder used to isolate total RNA in order to evaluate complement component 3 gene expression.
Representative compounds of this invention were evaluated in the rat uterotrophic/antiuterotrophic assay to determine their in vivo effects on the rat uterus.

Another experiment has as its system Ishikawa uterine cells. The experiment can be described thus: Ishikawa cell alkaline phosphatase test procedure. The class given is cell-based, human. Particulars: for Alkaline phosphatase activity, percent of response related to 1 nM 17β-estradiol: 48 h. How it is done: Ishikawa Cell Alkaline Phosphatase Test Procedure
Cell Maintenance and Treatment
Ishikawa cells were maintained in DMEM/F12 (50%:50%) containing phenol red+10% fetal bovine serum and the medium was supplemented with 2 mM Glutamax, 1% Pen/Strap and 1 mM sodium pyruvate. Five days prior to the beginning of each evaluation (treatment of cells) the medium was changed to phenol red-free DMEM/F12+10% dextran coated charcoal stripped serum. On the day before treatment, cells were harvested using 0.5% trypsin/EDTA and plated at a density of 5×10^4 cells/well in 96-well tissue culture plates. […] Cells were treated for 48 h prior to assay. […] Sample population for at each dose was n=8.
Alkaline Phosphatase Test Procedure
At the end of 48 h the media was aspirated and cells were washed three times with phosphate buffered saline (PBS); 50 μL of lysis buffer (0.1 M Tris-HCl, pH 9.8, 0.2% Triton X-100) was added to each well. Plates were placed at −80° C. for a minimum of 15 minutes. Plates were thawed at 37° C. followed by the addition of 150 μL of 0.1 M Tris-HCl, pH 9.8, containing 4 mM para-nitrophenylphosphate (pNPP) to each well (final concentration, 3 mM pNPP).
Absorbance and slope calculations were made using the KineticCalc Application program (Bio-Tek Instruments, Inc., Winooski, Vt.). Results are expressed as the mean +/−S.D. of the rate of enzyme reaction (slope) averaged over the linear portion of the kinetic reaction curve (optical density readings every 5 minutes for 30 minutes absorbance reading).
The four compounds were used as reference standards:
A description of these methods is described by Holinka, C. F., Hata, H., Kuramoto, H. and Gurpide, E. (1986) Effects of steroid hormones and antisteroids on alkaline phosphatase activity in human endometrial cancer cells (Ishikawa Line). Cancer Research, 46:2771-2774, and by Littlefield, B. A., Gurpide, E., Markiewicz, L., McKinley, B. and Hochberg, R. B. (1990) A simple and sensitive microtiter plate estrogen bioassay based on stimulation alkaline phosphatase in Ishikawa cells; Estrogen action of D5 adrenal steroids. Endocrinology, 6:2757-2762.

Setting [1] is: 1 uM compound + 1 nM E2, antagonist mode.

Usually IC50 stands for the concentration that gives 50% inhibition. On human estrogen receptor, `CCCCN(C)C(=O)CCCCCCCCCCS[C@@H]1C(=O)c2cc(O)ccc2[C@H]2CC[C@]3(C)[C@@H](O)CC[C@H]3[C@H]12` [Example 16, (7α,17β) 7-[10-(N-Butyl-N-methyl-carbamoyl)-decyl]thio-3,17-dihydroxy-estra-1,3,5(10)-triene-6-one] registered a 50% inhibitory concentration (IC50) of 300 nM. Further, the results for the Uterine wet weight in the experiment with rat uterus (1 ug Cpd) and with rat uterus (100 ug Cpd) were 41.3 mg and 72.5 mg, respectively. In addition, the “Alkaline phosphatase activity, percent of response related to 1 nM 17β-estradiol” value (from here on “Alkaline phosphatase activity, percent”) in the experiment on Ishikawa uterine cells (0.01 uM compound, agonist mode) is recorded as 7%; with Ishikawa uterine cells (0.1 uM compound, agonist mode), 22%; in the experiment on Ishikawa uterine cells (setting [1]), 66%; with Ishikawa uterine cells (1 uM compound, agonist mode) it was 42%.
The compound `CCCCN(C)C(=O)CCCCCCCCCCS[C@@H]1Cc2cc(O)ccc2[C@H]2CC[C@]3(C)[C@@H](O)CC[C@H]3[C@@H]21` [Example 18, (7α,17β) 7-[10-(N-Butyl-N-methyl-carbamoyl)-decyl]thio-estra-1,3,5(10)-triene-3,17-diol] registered an IC50 on human estrogen receptor of 100 nM. In addition, the Uterine wet weight is listed as 31.8 mg in the experiment on rat uterus (1 ug Cpd), 46.0 mg with rat uterus (1 ug E2 + 100 ug Cpd) and 41.6 mg in the experiment on rat uterus (100 ug Cpd). Also, the “Effect on rat uterus (agonist/antagonist)” value with rat uterus (in words, dosed alone or with 17β-estradiol) is given as “very efficacious antagonist”. The “Alkaline phosphatase activity, percent” value in the experiment with Ishikawa uterine cells (0.01 uM compound, agonist mode) was 0%; in the experiment with Ishikawa uterine cells (0.1 uM compound, agonist mode), 0%; with Ishikawa uterine cells (setting [1]), 1%; in the experiment on Ishikawa uterine cells (1 uM compound, agonist mode), 0%. Further, in the experiment on Ishikawa uterine cells (in words, from Table 2), the “Behaviour in the uterine cell line (agonist/antagonist)” value is recorded as “pure estrogen antagonists”.
For `C[C@]12CC[C@@H]3c4ccc(O)cc4C(=O)[C@@H](Sc4ccc(O)cc4)[C@H]3[C@@H]1CC[C@@H]2O` [Example 2, (7α,17β) 3,17-Dihydroxy-7-(4-hydroxyphenyl)thio-estra-1,3,5(10)-triene-6-one], on human estrogen receptor (read-out: Receptor IC50), the IC50 is 2500 nM. The Uterine wet weight came out at 39.4 mg with rat uterus (1 ug Cpd) and 83.1 mg with rat uterus (100 ug Cpd). Further, the “Alkaline phosphatase activity, percent” value was 7% with Ishikawa uterine cells (0.01 uM compound, agonist mode); 14% in the experiment with Ishikawa uterine cells (0.1 uM compound, agonist mode); 87% in the experiment with Ishikawa uterine cells (setting [1]); 42% in the experiment on Ishikawa uterine cells (1 uM compound, agonist mode).
